Experimental data published in US20100215580A1, “Compositions and methods for enhancing transport through mucus” (The Johns Hopkins University, priority 2006, published 2010).
“Also recorded” adds a separate entry of the source.

B1: rhDNase: mucus degrading agent which hydrolyzes linear DNA, used clinically to increase mucus clearance (protein, UniProt P24855 23-282, looked up)
Deoxyribonuclease-1: LKIAAFNIQTFGETKMSNATLVSYIVQILSRYDIALVQEVRDSHLTAVGKLLDNLNQDAPDTYHYVVSEPLGRNSYKERYLFVYRPDQVSAVDSYYYDDGCEPCGNDTFNREPAIVRFFSRFTEVREFAIVPLHAAPGDAVAEIDALYDVYLDVQEKWGLEDVMLMGDFNAGCSYVRPSQWSSIRLWTSPTFQWLIPDSADTTATPTHCAYDRIVVAGMLLRGAVVPDSALPFNFQAAYGLSDQLAQAISDHYPVEVMLK

Experiment: Multiple particle tracking of particles in CF sputum with mucolytic pretreatment
Format: in vitro ADME, human
Conditions: for effect on overall ensemble averaged transport rates of nanoparticles: CF mucus, 30 mins post-treatment, 200 nm particles (rhDNase), 100 nm particles (0.4 mM NAC)
Protocol: Human respiratory sputum was expectorated from male and female CF patients (ages 18-35). CF sputum samples from multiple patients were pooled, freeze-dried, and reconstituted in sputum buffer by stirring at 4° C. to attain a large volume of homogeneous CF sputum. The volume of sputum buffer added to reconstituted CF sputum samples was determined by mass measurements (the reconstituted CF sputum had the equivalent mass of the fresh CF sputum samples).
[…] Mucus samples (200 μL) were centrifuged and a portion of the supernatant (40 μL) was replaced with mucolytic solution or PBS to maintain the initial concentration of mucus solids and eliminate any dilution effects. The displacements of particles in the no treatment (PBS) control were identical to that of particles embedded in an unprocessed mucus sample, which was not centrifuged. The tracking resolution, evaluated by tracking 500 nm polystyrene probes in glycerol, was […].
The mechanism of particle transport over short and long time scales was classified based on the concept of relative change (RC) of effective diffusivity (Deff). In brief, RC values of particles at short and long time scales were calculated by dividing the Deff of a particle at a probed time scale by the Deff at an earlier reference time scale. By calculating RC values for two time regimes (i.e., short and long time scales), one can obtain the transport mode that describes the particle transport properties over different length and temporal scales. RCshort was defined at τref=0.2 s and τprobe=1 s, whereas RClong was found at reference τref=1 s and τprobe=2s. An RC standard curve, which plots the 95% distribution range of Deff for purely Brownian particles over time scale, was generated based on Monte Carlo simulations and confirmed by tracking polystyrene nanoparticles in glycerol (data not shown). The transport modes of particles that display RC values below the […] range for either short or long time scales were classified as hindered, and the rest were classified as diffusive. Immobile particles are defined as those that display an average MSD smaller than the 10-nm resolution at a time scale of 1 s.

Molecule	enhancement of diffusive fraction of 500 nm PEG-PS compared to no treatment control (500 nm PEG-PS particles, CF mucus pretreated with NAC) [fold]	increase of transport rates (ensemble geometric mean square displacement) compared to no treatment control (PBS) (500 nm PEG-PS particles, pretreatment of CF mucus with neutralized NAC) [fold]	effect on overall ensemble averaged transport rates of nanoparticles (listed as NAC)	effect on overall ensemble averaged transport rates of nanoparticles
CC(=O)N[C@@H](CS)C(=O)O [N-acetyl-L-cysteine]	3	10.7	significantly improved; also recorded: increased significantly	–
B1	–	–	–	reduced the overall ensemble averaged transport rates; also recorded: did not correlate to improved particle transport
